Assay results from patent US5801176A, “Substituted benzothienylpiperazines and their use” (Hoechst Marion Roussel, Inc., priority 1997, dated 1998).
Counter-ions that a name gives are not always drawn.

Test system: apomorphine climbing
Experiment: climbing mice assay (apomorphine-induced climbing, antipsychotic activity)
Format: in vivo
Conditions: Mus musculus, 0.5 h; 20 mg/kg, ip @ 30 (min before apomorphine 1.5 mg/kg sc); read-out: CLIMBING MOUSE % (percent response, climbing score vs. control set to 100%)
Protocol: The compounds of the present invention are useful for treating psychoses by virtue of their ability to elicit an antipsychotic response in mammals. Antipsychotic activity is determined in the climbing mice assay by a method similar to those described by P. Protais, et al., Psychopharmacol.,50:1 (1976) and B. Costall, Eur. J. Pharmacol., 50:39 (1978).
Subject […] male mice (23-27 grams) are group-housed under standard laboratory conditions. The mice are individually placed in wire mesh stick cages (4"×10") and are allowed one hour for adaption and exploration of the new environment. Then apomorphine is injected subcutaneously at 1.5 mg/kg, a dose causing climbing in all subjects for 30 minutes. Compounds to be tested for antipsychotic activity are injected intraperitioneally or given by oral doses at various time intervals., e.g. 30 minutes, 60 minutes, etc., prior to the apomorphine challenge at a screening dose of 10-60 mg/kg.
For evaluation of climbing, 3 readings are taken at 10, 20 and 30 minutes after apomorphine administration according to the following scale:
4 paws on bottom (no climbing)
2 paws on the wall (rearing)
4 paws on the wall (full climb)
Mice consistently climbing before the injection of apomorphine are discarded.
With full-developed apomorphine climbing, the animals are hanging on to the cage walls, rather motionless, over long periods of time. By contrast, climbs due to mere motor stimulation usually only last a few seconds.
The climbing scores are individually totaled (maximal score: 6 per mouse over 3 readings) and the total score of the control group (vehicle intraperitoneally-apomorphine subcutaneously) is set to 100%. The percent response at a dose of 20 mg/kg. or the ED50 values with 95% confidence limits, calculated by a linear regression analysis, of some of the compounds of the present invention as well as a standard antipsychotic agent are presented in Table 1.

Compared with Fc1ccc2c(N3CCN(CCCCN4Cc5ccccc5C4)CC3)csc2c1, O=C1c2ccccc2C(=O)N1CCCCN1CCN(c2csc3cc(F)ccc23)CC1 [2-[4-[4-(6-Fluorobenzo[b]thien-3-yl)-1-piperazinyl]butyl]-1H-isoindole-1,3(2H)-dione] is lower in change in vivo at 20 mg/kg: -33% for the first, -100% for the second.

Going from O=C1c2ccccc2C(O)N1CCN1CCN(c2csc3cc(F)ccc23)CC1 (stereo not shown) [2-[2-[4-(6-Fluorobenzo[b]thien-3-yl)-1-piperazinyl]-ethyl-2,3-dihydro-3-hydroxy-1H-isoindol-1-one] to O=C1c2ccccc2C(=O)N1CCN1CCN(c2csc3cc(F)ccc23)CC1 [N-[2-[4-(6-Fluorobenzo[b]thien-3-yl)-1-piperazinyl]-ethyl]-phthalimide], the change in vivo at 20 mg/kg rises from -43% to -25%.

Compared with NCCCCN1CCN(c2csc3cc(F)ccc23)CC1 [4-(6-Fluorobenzo[b]thien-3-yl)-1-piperazinebutanamine (Z)-2-butenedioate (1:2)], CC(=O)N(CCCCN1CCN(c2csc3cc(F)ccc23)CC1)C(=O)C(C)C [N-Acetyl-N-[4-[4-(6-fluorobenzo[b]thien-3-yl)-1-piperazinyl]butyl]-2-methyl-propanamide] is lower in change in vivo at 20 mg/kg: -34% for the first, -75% for the second.

Compared with O=C(NCCCCN1CCN(c2csc3cc(F)ccc23)CC1)c1cccs1 [N-[4-[4-(6-Fluorobenzo[b]thien-3-yl)-1-piperazinyl]butyl]-2-thiophenecarboxamide (Z)-2-butenedioate (1:1)], O=C(NCCCCN1CCN(c2csc3cc(F)ccc23)CC1)C12CC3CC(CC(C3)C1)C2 [N-[4-[4-(6-Fluorobenzo[b]thien-3-yl)-1-piperazinyl]butyl]-adamantane-1-carboxamide maleate] is higher in change in vivo at 20 mg/kg: -100% for the first, -79% for the second.

Same assay, conditions: Mus musculus, 0.5 h; ip @ 30 (min before apomorphine 1.5 mg/kg sc); parentheses = 95% confidence limits

CC(=O)NCCCCN1CCN(c2csc3cc(F)ccc23)CC1 [N-[4-[4-(6-Fluorobenzo[b]thien-3-yl)-1-piperazinyl]butyl-acetamide] and CC(C)C(=O)NCCCCN1CCN(c2csc3cc(F)ccc23)CC1 [N-[4-[4-(6-fluorobenzo[b]thien-3-yl)-1-piperazinyl]butyl]-2-methyl-propanamide] are within 1.5-fold of each other in ED50: 1.35 mg/kg for the first, 1.3 mg/kg for the second.
